Assay results as given in patent publication US9006185B2, “Use of cell-permeable peptide inhibitors of the JNK signal transduction pathway for the treatment of various diseases” (Xigen Inflammation Ltd., priority 2008, dated 2015).
Entries after “also recorded” stand apart in the source; their conditions may differ.

What was measured:
[1] = tested on: Varicella-Zoster Virus (VZV); experiment: VZV-BAC-Luc replication in HFFs, luciferase assay; type: cell-based, human; details: 24 h, 0.25, 0.5, 1.0 μM tested
Method: Virus yield was measured by luciferase assay. Samples were in triplicate and the average luminescence is shown; error bars represent the standard deviation of the mean.

[2] = tested on: Aβ1-40 and Aβ1-42; experiment: Aβ1-40 and Aβ1-42 ELISA in brain homogenate fractions and CSF of hAPP Tg mice; type: in vivo
Method: iv) Treatment • Forty female hAPP transgenic mice were treated with either 0.1 mg/kg b.w./every two weeks or 10 mg/kg b.w./every three weeks of the test substance XG-102 (SEQ ID NO: 11) in two different dosages (n=12/group) or treated with the vehicle (n=12) s.c. once every three weeks over four months.
vi) Tissue Sampling • At the end of the treatment period, and following all behavioral testing, all remaining mice (n=28) were sacrificed. Therefore, all mice were sedated by standard inhalation anesthesia (Isofluran, Baxter) as described in SOP MET030. Cerebrospinal fluid (CSF) was obtained by blunt dissection and exposure of the foramen magnum. Upon exposure, a Pasteur pipette was inserted to the approximate depth of 0.3-1 mm into the foramen magnum. CSF was collected by suctioning and capillary action until flow fully ceases. Two aliquots of each sample were immediately frozen and kept at −80° C. until ready for further analysis with ELISA technique. After CSF sampling, each mouse was placed in dorsal recumbence, thorax was opened and a 26-gauge needle attached to a 1 cc syringe was inserted into the right cardiac ventricular chamber. Light suction was applied to the needle and blood was collected into EDTA and consequently used to obtain plasma. To get plasma, blood samples from each mouse were spun at 1,750 rpm (700 g) for 10 minutes in a centrifuge (GS-6R Beckman) using a rotor with swing buckets (GH—3.8 Beckman). Plasma was frozen and stored at −20° C. until further analysis. After blood sampling transgenic mice were intracardially perfused with 0.9% sodium chloride. Brains were rapidly removed the cerebellum was cut off. The right hemispheres of all mice were immersion fixed in freshly produced 4% Paraformaldehyde/PBS (pH 7.4) for one hour at room temperature. Thereafter brains were transferred to a 15% sucrose PBS solution for 24 hours to ensure cryoprotection. […]
vii) Determination of Aβ1-40 and Aβ1-42 • In four different brain homogenate fractions of each Tg mouse as well as in CSF samples the Aβ1-40 and Aβ1-42 levels were evaluated with ELISA technique. […]

Structure (SMILES): CC(C)C[C@@H](NC(=O)[C@@H](Cc1ccccc1)NC(=O)[C@H]1CCCN1C(=O)[C@@H](CCC(N)=O)NC(=O)[C@H](NC(=O)[C@H]1CCCN1C(=O)[C@@H](CCCNC(=N)N)NC(=O)[C@@H](CO)NC(=O)[C@@H](CCC(N)=O)NC(=O)[C@H](N)CC(=O)O)C(C)C)C(=O)N[C@H](CC(N)=O)C(=O)N[C@H](CC(C)C)C(=O)N[C@@H](C(=O)N[C@@H](C(=O)N1CCC[C@@H]1C(=O)N[C@H](CCCNC(=N)N)C(=O)N[C@H](CCCCN)C(=O)N1CCC[C@@H]1C(=O)N[C@H](CCCNC(=N)N)C(=O)N1CCC[C@@H]1C(=O)N1CCC[C@@H]1C(=O)N[C@H](CCCNC(=N)N)C(=O)N[C@H](CCCNC(=N)N)C(=O)N[C@H](CCCNC(=N)N)C(=O)N[C@H](CCC(N)=O)C(=O)N[C@H](CCCNC(=N)N)C(=O)N[C@H](CCCNC(=N)N)C(=O)N[C@H](CCCCN)C(=O)N[C@H](CCCCN)C(=O)N[C@H](CCCNC(=N)N)C(=O)NCC(=O)O)[C@H](C)O)[C@H](C)O [XG-102]
- concentration preventing VZV replication (lowest concentration tested) [1]: ≤ 0.25 µM
- brain homogenate Aβ1-40 levels ([2]; both dosages): did not affect brain homogenate Aβ1-40 levels
- CSF Aβ1-40 and Aβ1-42 levels ([2]; both dosages, p<0.01 10 mg/kg, <0.05 low dosage): a significant decrease of Aβ1-40 and Aβ1-42 in CSF; also recorded: significantly decreased in CSF compared to vehicle group
- Aβ1-42 level in Triton X-100 fraction ([2]; low dose 0.1 mg/kg, p<0.05 vs vehicle): a significant reduction compared to the vehicle group
